One assay addresses P300 (Homo sapiens, UniProt Q09472). The assay can be described thus: Immunoblotting of P300 protein levels in LNCaP or 22RV1 cells. Particulars: read-out: Degradation (10 nM). More on the design: LNCaP or 22RV1 cells that express CBP/P300 proteins were treated with GNE-781 or the bivalent compounds; endogenous in cells; host or cells: LNCaP (clone FGC) or 22RV1 cells. It is filed as cell-based. The method, boiled down: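 P300/CBP levels quantified by chemiluminescent immunoblot band densitometry, normalized against tubulin or vinculin loading controls. Lysates came from LNCaP or 22RV1 cells exposed to compounds or DMSO vehicle for indicated times.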

Another assay concerns LNCaP cells. The assay is described as follows: LNCaP cell viability assay (CellTiter-Glo). It is filed as cell-based. Particulars: for pIC50: Homo sapiens, 72 h, LNCaP prostate cancer cell viability inhibition, 3 days. The essentials:
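Three-day treatment of LNCaP cells (5000 per well) across a 12-point, 3-fold dilution series starting at 10 μM. ATP luminescence (CellTiter-Glo) relative to untreated controls gave dose-response curves fitted nonlinearly for IC50.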

Setting [1] is: percentage of inhibition of p300 at 10 nM (Table 3).
Setting [2] is: percentage of inhibition of p300 at 10 nM (Table 2).

The structures appear in SMILES notation. pIC50: −log10 of the molar value. Read-outs that look alike come from different tables or passages of the source.

Sequence of P300 (Q09472 whole entry): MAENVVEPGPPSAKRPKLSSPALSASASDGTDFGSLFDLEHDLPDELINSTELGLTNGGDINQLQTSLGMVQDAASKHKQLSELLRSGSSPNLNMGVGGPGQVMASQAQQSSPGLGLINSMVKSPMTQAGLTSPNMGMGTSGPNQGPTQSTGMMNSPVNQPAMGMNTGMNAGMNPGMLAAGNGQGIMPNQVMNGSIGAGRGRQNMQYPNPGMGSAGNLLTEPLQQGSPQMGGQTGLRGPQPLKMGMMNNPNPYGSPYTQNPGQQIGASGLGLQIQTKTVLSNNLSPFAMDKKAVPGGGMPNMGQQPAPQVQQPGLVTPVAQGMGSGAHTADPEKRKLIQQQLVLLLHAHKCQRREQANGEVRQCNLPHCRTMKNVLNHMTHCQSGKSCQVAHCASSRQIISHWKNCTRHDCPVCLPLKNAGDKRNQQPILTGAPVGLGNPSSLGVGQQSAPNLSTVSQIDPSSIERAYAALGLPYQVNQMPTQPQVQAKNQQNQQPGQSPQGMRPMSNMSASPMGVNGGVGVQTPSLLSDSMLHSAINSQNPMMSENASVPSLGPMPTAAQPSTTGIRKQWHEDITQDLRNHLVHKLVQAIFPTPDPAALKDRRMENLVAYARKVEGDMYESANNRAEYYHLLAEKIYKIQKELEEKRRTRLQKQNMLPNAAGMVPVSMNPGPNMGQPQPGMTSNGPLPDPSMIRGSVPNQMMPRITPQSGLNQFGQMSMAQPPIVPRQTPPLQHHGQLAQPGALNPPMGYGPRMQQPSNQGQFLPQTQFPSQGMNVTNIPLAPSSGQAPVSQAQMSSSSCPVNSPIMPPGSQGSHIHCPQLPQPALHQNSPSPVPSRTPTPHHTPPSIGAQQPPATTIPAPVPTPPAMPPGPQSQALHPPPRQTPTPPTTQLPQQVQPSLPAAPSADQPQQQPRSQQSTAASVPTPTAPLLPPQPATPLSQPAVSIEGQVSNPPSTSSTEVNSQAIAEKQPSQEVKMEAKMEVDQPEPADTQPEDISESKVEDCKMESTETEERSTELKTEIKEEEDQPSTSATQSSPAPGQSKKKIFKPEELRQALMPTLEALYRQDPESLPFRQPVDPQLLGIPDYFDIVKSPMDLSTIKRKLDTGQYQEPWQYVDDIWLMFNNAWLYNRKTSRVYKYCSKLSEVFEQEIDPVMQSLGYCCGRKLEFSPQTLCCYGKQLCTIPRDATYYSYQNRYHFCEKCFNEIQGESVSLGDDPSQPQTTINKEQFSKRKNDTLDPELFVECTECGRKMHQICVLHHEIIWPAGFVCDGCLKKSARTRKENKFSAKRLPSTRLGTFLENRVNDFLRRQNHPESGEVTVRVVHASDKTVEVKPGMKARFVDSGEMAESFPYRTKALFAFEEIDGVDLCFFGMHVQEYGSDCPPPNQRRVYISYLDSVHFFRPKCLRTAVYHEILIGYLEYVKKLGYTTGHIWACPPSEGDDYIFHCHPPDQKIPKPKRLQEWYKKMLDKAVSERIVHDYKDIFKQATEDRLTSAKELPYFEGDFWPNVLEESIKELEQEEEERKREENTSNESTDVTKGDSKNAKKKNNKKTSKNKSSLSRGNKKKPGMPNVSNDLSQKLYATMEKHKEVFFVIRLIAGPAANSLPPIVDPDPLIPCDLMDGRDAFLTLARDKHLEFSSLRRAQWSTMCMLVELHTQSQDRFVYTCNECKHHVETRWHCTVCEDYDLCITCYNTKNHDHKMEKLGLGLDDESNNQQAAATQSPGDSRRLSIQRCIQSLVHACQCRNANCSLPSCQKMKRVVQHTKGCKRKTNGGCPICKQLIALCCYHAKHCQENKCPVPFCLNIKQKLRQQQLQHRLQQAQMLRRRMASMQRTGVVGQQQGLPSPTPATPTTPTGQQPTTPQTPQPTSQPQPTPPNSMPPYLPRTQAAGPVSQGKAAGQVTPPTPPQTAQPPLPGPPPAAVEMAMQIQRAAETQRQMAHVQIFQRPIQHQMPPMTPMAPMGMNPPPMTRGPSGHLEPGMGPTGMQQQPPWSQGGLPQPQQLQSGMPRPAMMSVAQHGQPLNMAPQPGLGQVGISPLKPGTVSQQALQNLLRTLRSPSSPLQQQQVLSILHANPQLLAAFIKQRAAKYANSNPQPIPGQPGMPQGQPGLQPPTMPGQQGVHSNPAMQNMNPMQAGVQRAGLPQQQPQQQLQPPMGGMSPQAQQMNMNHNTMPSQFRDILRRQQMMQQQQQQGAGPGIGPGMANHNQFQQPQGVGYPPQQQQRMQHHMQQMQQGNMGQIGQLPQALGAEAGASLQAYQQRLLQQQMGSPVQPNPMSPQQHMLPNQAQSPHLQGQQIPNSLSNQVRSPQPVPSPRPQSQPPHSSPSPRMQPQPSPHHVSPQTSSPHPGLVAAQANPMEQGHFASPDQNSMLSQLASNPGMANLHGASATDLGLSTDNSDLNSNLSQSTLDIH

On to `CNC(=O)N1CCc2c(c(N3CCCc4cc(-c5cnn(C)c5)c(C(F)F)cc43)nn2C2CCN(C(=O)CCCCCOc3cccc4c3C(=O)N(C3CCC(=O)NC3=O)C4)CC2)C1` (centres unmarked) [P-089, 3-(7-(Difluoromethyl)-6-(1-methyl-1H-pyrazol-4-yl)-3,4-dihydroquinolin-1(2H)-yl)-1-(1-(6-((2-(2,6-dioxopiperidin-3-yl)-3-oxoisoindolin-4-yl)oxy)hexanoyl)piperidin-4-yl)-N-methyl-1,4,6,7-tetrahydro-5H-pyrazolo[4,3-c]pyridine-5-carboxamide], for which the inhibition at 0.01 µM at P300 (setting [1]) was less than 20%. In addition, the pIC50 in the assay with LNCaP cells (CellTiter-Glo (Table 3)) was 7.11.
As for `CNC(=O)N1CCc2c(c(N3CCCc4cc(-c5cnn(C)c5)c(C(F)F)cc43)nn2C2CCN(C(=O)CCCCCOc3cccc4c3C(=O)N(C3CCC(=O)NC3=O)C4=O)CC2)C1` (centres unmarked) [P-084, 3-(7-(Difluoromethyl)-6-(1-methyl-1H-pyrazol-4-yl)-3,4-dihydroquinolin-1(2H)-yl)-1-(1-(6-((2-(2,6-dioxopiperidin-3-yl)-1,3-dioxoisoindolin-4-yl)oxy)hexanoyl)piperidin-4-yl)-N-methyl-1,4,6,7-tetrahydro-5H-pyrazolo[4,3-c]pyridine-5-carboxamide], the inhibition at 0.01 µM at P300 (setting [1]) was 50 to 80%. The same compound showed a pIC50 in the assay on LNCaP cells (CellTiter-Glo (Table 3)) of 7.88.
Take `CC(=O)N1CCc2c(c(N3CCCc4cc(-c5cnn(CC(=O)NCCCCCCCNc6ccc7c(c6)C(=O)N(C6CCC(=O)NC6=O)C7=O)c5)c(C(F)F)cc43)nn2C2CCOCC2)C1` (centres unmarked) [P-133, 2-(4-(1-(5-acetyl-1-(tetrahydro-2H-pyran-4-yl)-4,5,6,7-tetrahydro-1H-pyrazolo[4,3-c]pyridin-3-yl)-7-(difluoromethyl)-1,2,3,4-tetrahydroquinolin-6-yl)-1H-pyrazol-1-yl)-N-(7-((2-(2,6-dioxopiperidin-3-yl)-1,3-dioxoisoindolin-5-yl)amino)heptyl)acetamide]: the inhibition at 0.01 µM on P300 (setting [1]) was more than 80%. The pIC50 with LNCaP cells (CellTiter-Glo (Table 3)) is 8.40.
With `CNC(=O)N1CCc2c(c(N3CCCc4cc(-c5cnn(CC(=O)NCCCCCCCNc6ccc7c(c6)C(=O)N(C6CCC(=O)NC6=O)C7=O)c5)c(C(F)F)cc43)nn2C2CCOCC2)C1` (centres unmarked) [P-026, 3-(7-(difluoromethyl)-6-(1-(2-((7-((2-(2,6-dioxopiperidin-3-yl)-1,3-dioxoisoindolin-5-yl)amino)heptyl)amino)-2-oxoethyl)-1H-pyrazol-4-yl)-3,4-dihydroquinolin-1(2H)-yl)-N-methyl-1-(tetrahydro-2H-pyran-4-yl)-1,4,6,7-tetrahydro-5H-pyrazolo[4,3-c]pyridine-5-carboxamide], the inhibition at 0.01 µM at P300 (setting [2]) is more than 80%. For the same compound, the pIC50 with LNCaP cells (CellTiter-Glo (Table 2)) is 8.49.
Take `CC(=O)N1CCc2c(c(N3CCCc4cc(-c5cnn(C)c5)c(C(F)F)cc43)nn2C2CCN(C(=O)CCCCCNc3ccc4c(c3)C(=O)N(C3CCC(=O)NC3=O)C4=O)CC2)C1` (centres unmarked) [P-120, 5-((6-(4-(5-acetyl-3-(7-(difluoromethyl)-6-(1-methyl-1H-pyrazol-4-yl)-3,4-dihydroquinolin-1(2H)-yl)-4,5,6,7-tetrahydro-1H-pyrazolo[4,3-c]pyridin-1-yl)piperidin-1-yl)-6-oxohexyl)amino)-2-(2,6-dioxopiperidin-3-yl)isoindoline-1,3-dione]: the inhibition at 0.01 µM at P300 (setting [1]) is more than 80%. The negative-log IC50 (pIC50) with LNCaP cells (CellTiter-Glo (Table 3)) is 8.03.
`CNC(=O)N1CCc2c(c(N3CCCc4cc(-c5cnn(CC(=O)NCCCCNc6cccc7c6C(=O)N(C6CCC(=O)NC6=O)C7=O)c5)c(C(F)F)cc43)nn2C2CCOCC2)C1` (centres unmarked) [P-039, 3-(7-(Difluoromethyl)-6-(1-(2-((4-((2-(2,6-dioxopiperidin-3-yl)-1,3-dioxoisoindolin-4-yl)amino)butyl)amino)-2-oxoethyl)-1H-pyrazol-4-yl)-3,4-dihydroquinolin-1(2H)-yl)-N-methyl-1-(tetrahydro-2H-pyran-4-yl)-1,4,6,7-tetrahydro-5H-pyrazolo[4,3-c]pyridine-5-carboxamide]: the inhibition at 0.01 µM at P300 (setting [2]) is less than 20%. Further, in the assay with LNCaP cells (CellTiter-Glo (Table 2)), the pIC50 is 6.40.
For the compound `CNC(=O)N1CCc2c(c(N3CCCc4cc(-c5cnn(C)c5)c(C(F)F)cc43)nn2C2CCN(C(=O)CNc3ccc4c(c3)C(=O)N(C3CCC(=O)NC3=O)C4=O)CC2)C1` (centres unmarked) [P-001, 3-(7-(Difluoromethyl)-6-(1-methyl-1H-pyrazol-4-yl)-3,4-dihydroquinolin-1(2H)-yl)-1-(1-((2-(2,6-dioxopiperidin-3-yl)-1,3-dioxoisoindolin-5-yl)glycyl)piperidin-4-yl)-N-methyl-1,4,6,7-tetrahydro-5H-pyrazolo[4,3-c]pyridine-5-carboxamide], the inhibition at 0.01 µM at P300 (setting [2]) is 50 to 80%. Further, the pIC50 with LNCaP cells (CellTiter-Glo (Table 2)) was 6.73. Also, the “viability of LNCaP cells” value in the assay with LNCaP cells (from 10 μM, 12-point 3-fold serial dilution, 3 days (FIG. 4)) is listed as “dose-dependently suppressed viability”.
Regarding `CC(=O)N1CCc2c(c(N3CCCc4cc(-c5cnn(C)c5)c(C(F)F)cc43)nn2C2CCN(CCN3CCC(CCc4cccc5c4C(=O)N(C4CCC(=O)NC4=O)C5=O)CC3)CC2)C1` (centres unmarked) [P-157, 4-(2-(1-(2-(4-(5-acetyl-3-(7-(difluoromethyl)-6-(1-methyl-1H-pyrazol-4-yl)-3,4-dihydroquinolin-1(2H)-yl)-4,5,6,7-tetrahydro-1H-pyrazolo[4,3-c]pyridin-1-yl)piperidin-1-yl)ethyl)piperidin-4-yl)ethyl)-2-(2,6-dioxopiperidin-3-yl)isoindoline-1,3-dione], the inhibition at 0.01 µM on P300 (setting [1]) was in the range of 50 to 80%. In the assay on LNCaP cells (CellTiter-Glo (Table 3)), the pIC50 was 8.49.
On to `CNC(=O)N1CCc2c(c(N3CCCc4cc(-c5cnn(CC(=O)NCCCCCCCCCC(=O)NC(C(=O)N6C[C@H](O)C[C@H]6C(=O)NCc6ccc(-c7scnc7C)cc6)C(C)(C)C)c5)c(C(F)F)cc43)nn2C2CCOCC2)C1` (stereo in doubt) [P-049, 3-(7-(Difluoromethyl)-6-(1-(2-((10-(((S)-1-((2S,4R)-4-hydroxy-2-((4-(4-methylthiazol-5-yl)benzyl)carbamoyl)pyrrolidin-1-yl)-3,3-dimethyl-1-oxobutan-2-yl)amino)-10-oxodecyl)amino)-2-oxoethyl)-1H-pyrazol-4-yl)-3,4-dihydroquinolin-1(2H)-yl)-N-methyl-1-(tetrahydro-2H-pyran-4-yl)-1,4,6,7-tetrahydro-5H-pyrazolo[4,3-c]pyridine-5-carboxamide], for which, at P300 (setting [2]), the inhibition at 0.01 µM was less than 20%. The negative-log IC50 (pIC50) in the assay with LNCaP cells (CellTiter-Glo (Table 2)) is 6.63.
For the compound `CNC(=O)N1CCc2c(c(N3CCCc4cc(-c5cnn(C)c5)c(C(F)F)cc43)nn2C2CCN(C(=O)CCCCCCCCCC(=O)N[C@H](C(=O)N3C[C@H](O)C[C@H]3C(=O)NCc3ccc(-c4scnc4C)cc3)C(C)(C)C)CC2)C1` [P-063, 3-(7-(Difluoromethyl)-6-(1-methyl-1H-pyrazol-4-yl)-3,4-dihydroquinolin-1(2H)-yl)-1-(1-(11-(((S)-1-((2S,4R)-4-hydroxy-2-((4-(4-methylthiazol-5-yl)benzyl)carbamoyl)pyrrolidin-1-yl)-3,3-dimethyl-1-oxobutan-2-yl)amino)-11-oxoundecanoyl)piperidin-4-yl)-N-methyl-1,4,6,7-tetrahydro-5H-pyrazolo[4,3-c]pyridine-5-carboxamide], on P300 (setting [1]), the inhibition at 0.01 µM lay in the range of 20 to 50%. The same compound had a negative logarithm of the IC50 (pIC50) in the assay on LNCaP cells (CellTiter-Glo (Table 3)) of 7.54.
On the same counts, the results for `CNC(=O)N1CCc2c(c(N3CCCc4cc(-c5cnn(CC(=O)NCCOCC(=O)N[C@H](C(=O)N6C[C@H](O)C[C@H]6C(=O)NCc6ccc(-c7scnc7C)cc6)C(C)(C)C)c5)c(C(F)F)cc43)nn2C2CCOCC2)C1` [P-073, 3-(7-(Difluoromethyl)-6-(1-(2-((2-(2-(((S)-1-((2S,4R)-4-hydroxy-2-((4-(4-methylthiazol-5-yl)benzyl)carbamoyl)pyrrolidin-1-yl)-3,3-dimethyl-1-oxobutan-2-yl)amino)-2-oxoethoxy)ethyl)amino)-2-oxoethyl)-1H-pyrazol-4-yl)-3,4-dihydroquinolin-1(2H)-yl)-N-methyl-1-(tetrahydro-2H-pyran-4-yl)-1,4,6,7-tetrahydro-5H-pyrazolo[4,3-c]pyridine-5-carboxamide] are less than 20% and less than 5.00.

The record behind these values is US20230073777A1, “CYCLIC-AMP RESPONSE ELEMENT BINDING PROTEIN (CBP) AND/OR ADENOVIRAL E1A BINDING PROTEIN OF 300 KDA (P300) DEGRADATION COMPOUNDS AND METHODS OF USE” (CULLGEN (SHANGHAI), INC., priority 2019, published 2023).
